From PubChem BioAssay (NCI)
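Growth conditions: 96-well plates. Treatment: test compound, 48 hours, 5 concentrations. Analysis: linear interpolation between bracketing concentrations; unreached endpoints set to highest concentration. GI50 marks 50% less growth. At the TGI there is no net growth.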

Assays:
Assay in all cases: DTP human tumour cell line panel, 48 h
A498 renal = system: A498 renal
EKVX NSCLC = system: EKVX NSCLC
HOP-62 NSCLC = system: HOP-62 NSCLC
M14 melanoma = system: M14 melanoma
OVCAR-3 ovarian = system: OVCAR-3 ovarian
UACC-62 melanoma = system: UACC-62 melanoma
HOP-92 NSCLC = system: HOP-92 NSCLC
BT-549 breast = system: BT-549 breast
MCF7 breast = system: MCF7 breast
PC-3 prostate = system: PC-3 prostate

| Structure (SMILES) | GI50 (A498 renal) [µM] | TGI (A498 renal) [µM] | GI50 (EKVX NSCLC) [µM] | TGI (EKVX NSCLC) [µM] | GI50 (HOP-62 NSCLC) [µM] | TGI (HOP-62 NSCLC) [µM] | GI50 (M14 melanoma) [µM] | TGI (M14 melanoma) [µM] | GI50 (OVCAR-3 ovarian) [µM] | TGI (OVCAR-3 ovarian) [µM] | GI50 (UACC-62 melanoma) [µM] | TGI (UACC-62 melanoma) [µM] | TGI (HOP-92 NSCLC) [µM] | GI50 (BT-549 breast) [µM] | TGI (BT-549 breast) [µM] | GI50 (HOP-92 NSCLC) [µM] | GI50 (MCF7 breast) [µM] | TGI (MCF7 breast) [µM] | GI50 (PC-3 prostate) [µM] | TGI (PC-3 prostate) [µM] |
| --- | --- | --- | --- | --- | --- | --- | --- | --- | --- | --- | --- | --- | --- | --- | --- | --- | --- | --- | --- | --- |
| [CH3][Sn]1([CH3])[O]CC(COc2cc(Cl)c(Cl)cc2Cl)[O]1 (stereo not drawn) | 70 | > 100 | 55.9 | > 100 | > 100 | > 100 | 39.6 | > 100 | 42.8 | > 100 | 40.7 | > 100 | – | – | – | – | – | – | – | – |
| COC(=O)C(C(=O)C(N)=O)c1csc(-n2nc(-c3ccccc3)cc2-c2ccccc2)n1 (stereo not drawn) | – | > 31.6 | – | > 31.6 | – | – | – | > 31.6 | – | > 100 | – | > 31.6 | > 100 | – | – | – | – | – | – | – |
| Cc1cc(Nc2nc(-c3ccncc3)nc3ccccc23)n[nH]1 | 0.654 | 6.01 | – | – | 11 | > 100 | 10.3 | > 100 | 9.26 | > 100 | – | – | > 100 | 9.09 | > 100 | 4.39 | 8.18 | > 100 | – | – |
| C/C(=N\NS(=O)(=O)c1ccc([N+](=O)[O-])cc1)c1ccc[n+]([O-])n1 | – | 4 | – | 20.9 | – | 4.7 | – | 4.84 | – | 4.95 | – | 2.59 | 8.3 | – | – | – | – | – | – | – |
| N#CC(C(=O)CCCC(=O)Nc1ccc(Cl)cc1Cl)c1ccc(Cl)cc1 (stereo not drawn) | – | – | – | – | – | > 100 | – | > 100 | – | > 100 | – | > 100 | > 100 | – | – | – | – | – | – | – |
| Cn1nc(-c2ccccc2)c(C(=O)/C=C/c2ccc(Cl)cc2)c(N2CCCC2)c1=O | – | – | – | 32.4 | – | 6.93 | – | 22.2 | – | – | – | 22.4 | 6.94 | – | – | – | – | – | – | – |
| CN=C(N)N/N=C(\C)c1ccc2c(c1)Cc1ccccc1-2 | 2.89 | 9.21 | 2.62 | 13.9 | 1.66 | 3.2 | 1.65 | 3.02 | – | – | 1.5 | 2.86 | 5.67 | 10.2 | 27.9 | 1.63 | – | – | 2.39 | 10.3 |
| O=C(/C=C/C1C(=O)NC(=O)NC1=O)CC(=O)C(=O)Nc1cc(Cl)c(Cl)cc1Cl | – | > 100 | – | > 100 | – | > 100 | – | > 100 | – | > 100 | – | > 100 | – | – | – | – | – | – | – | – |
| CC1=CC(=O)NP(=O)(C23CC4CC(CC(C4)C2)C3)N1 (stereo not drawn) | – | > 100 | – | > 100 | – | > 100 | – | > 100 | – | > 100 | – | > 100 | > 100 | – | – | – | – | – | – | – |
